For orientation: IC50 means the concentration that gives 50% inhibition.

The target of the assay is T1, NLRP3 (Homo sapiens, UniProt Q96P20).
T1 construct: host or cells: THP-1 cells differentiated with PMA
T1 sequence (Q96P20 whole entry): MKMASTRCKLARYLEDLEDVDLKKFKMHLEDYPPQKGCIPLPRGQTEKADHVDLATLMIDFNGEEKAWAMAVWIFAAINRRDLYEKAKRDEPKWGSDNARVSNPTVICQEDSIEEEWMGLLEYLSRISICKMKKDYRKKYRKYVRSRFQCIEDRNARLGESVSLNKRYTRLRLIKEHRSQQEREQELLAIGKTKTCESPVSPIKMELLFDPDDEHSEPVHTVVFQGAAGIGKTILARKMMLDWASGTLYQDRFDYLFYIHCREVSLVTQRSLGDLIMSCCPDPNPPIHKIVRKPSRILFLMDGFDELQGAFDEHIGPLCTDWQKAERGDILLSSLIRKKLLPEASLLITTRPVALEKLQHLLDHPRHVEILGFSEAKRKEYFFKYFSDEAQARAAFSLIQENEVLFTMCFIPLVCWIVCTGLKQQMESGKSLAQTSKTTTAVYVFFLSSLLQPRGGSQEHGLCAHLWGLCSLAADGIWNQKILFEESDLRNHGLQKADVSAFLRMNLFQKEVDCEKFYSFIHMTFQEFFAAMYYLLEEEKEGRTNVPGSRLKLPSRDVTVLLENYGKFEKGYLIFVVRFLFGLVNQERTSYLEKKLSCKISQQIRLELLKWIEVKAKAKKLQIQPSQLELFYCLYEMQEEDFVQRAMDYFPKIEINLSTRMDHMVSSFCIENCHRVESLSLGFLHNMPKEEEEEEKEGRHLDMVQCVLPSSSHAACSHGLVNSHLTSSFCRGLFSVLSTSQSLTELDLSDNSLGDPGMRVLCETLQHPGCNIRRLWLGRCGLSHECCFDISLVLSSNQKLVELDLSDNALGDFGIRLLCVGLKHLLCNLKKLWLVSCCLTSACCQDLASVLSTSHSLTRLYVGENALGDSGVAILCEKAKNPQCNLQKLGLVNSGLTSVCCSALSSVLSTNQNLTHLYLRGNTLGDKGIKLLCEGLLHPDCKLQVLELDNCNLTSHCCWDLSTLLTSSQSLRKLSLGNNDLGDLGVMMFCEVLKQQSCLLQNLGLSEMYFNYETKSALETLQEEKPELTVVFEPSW
The assay is described as follows: IL-1β Secretion Assay (NLRP3-dependent IL1β secretion in THP1 cells). The format is cell-based. Conditions: PMA-differentiated THP-1 cells; compounds incubated 20 h; 2.5 μM Nigericin 3 h; HTRF IL-1β readout; read-out: IC50 IL-1β Inhibition. The method, boiled down: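 IL-1β in conditioned media, measured by HTRF after 3 h 2.5 μM nigericin stimulation, gave % inhibition fitted logistically for IC50. Before that, PMA-differentiated (100 ng/mL, 24 h) THP-1 cells were preincubated 20 h with 7 compound concentrations (3-fold serial, DMSO 1:200).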
(TR-FRET usually uses a lanthanide donor and a delayed reading to cut background.)
`FC(F)(F)c1ccc(-c2nnc(N[C@@H]3CCCN(C4CCCOC4)C3)n3cccc23)c(C(F)(F)F)c1` (stereo partly drawn) [Compound 6, 1-[2,4-bis(trifluoromethyl)phenyl]-N-[(3R)-1-(oxan-3-yl)piperidin-3-yl]pyrrolo[1,2-d][1,2,4]triazin-4-amine]: the IC50 is 10 to 100 nM.
Under `O[C@@H]1COCC[C@H]1Nc1nnc(-c2ccc(C(F)(F)F)cc2CC(F)(F)F)c2cccn12` [Compound 112, (3S,4R)-4-({1-[2-(2,2,2-trifluoroethyl)-4-(trifluoromethyl)phenyl]pyrrolo[1,2-d][1,2,4]triazin-4-yl}amino)oxan-3-ol] stands 1 to 10 nM.
Under `COc1ccc(-c2nnc(NC(C)c3cccnc3)n3cncc23)c(OC(F)(F)F)c1` (single isomer, unassigned) [Compound 308] stands 100 to 300 nM.
Under `CCN1CCC[C@@H](Nc2nnc(-c3ccc(C)cc3S(C)(=O)=O)c3cc(C)nn23)C1` [Compound 368, N-[(3R)-1-ethylpiperidin-3-yl]-4-[2-(methanesulfonyl)-4-methylphenyl]-2-methylpyrazolo[1,5-d][1,2,4]triazin-7-amine] stands 10 to 100 nM; under `COc1ccc(-c2nnc(NCc3nnnn3C)n3cccc23)c(OC(F)(F)F)c1` [Compound 125, 1-[4-methoxy-2-(trifluoromethoxy)phenyl]-N-[(1-methyl-1H-tetrazol-5-yl)methyl]pyrrolo[1,2-d][1,2,4]triazin-4-amine], 100 to 300 nM.
For `COc1ccc(-c2nnc(N[C@@H]3CCOC[C@H]3O)n3cc(C)cc23)c(OC(F)(F)F)c1` [Compound 165, (3S,4R)-4-({1-[4-methoxy-2-(trifluoromethoxy)phenyl]-7-methylpyrrolo[1,2-d][1,2,4]triazin-4-yl}amino)oxan-3-ol], the IC50 was in the range of 1 to 10 nM.
Under `CN1CCC[C@@H](Nc2nnc(-c3ccc(C4CC4)cc3CC(F)(F)F)c3cncn23)C1` [Compound 352, 1-[4-cyclopropyl-2-(2,2,2-trifluoroethyl)phenyl]-N-[(3R)-1-methylpiperidin-3-yl]imidazo[1,5-d][1,2,4]triazin-4-amine] stands 1 to 10 nM; under `FC(F)Oc1cc(C(F)(F)F)ccc1-c1nnc(N[C@@H]2CCCNC2)n2cccc12` [Compound 35, 1-[2-(difluoromethoxy)-4-(trifluoromethyl)phenyl]-N-[(3R)-piperidin-3-yl]pyrrolo[1,2-d][1,2,4]triazin-4-amine], 10 to 100 nM; under `FC(F)Oc1ccc(-c2nnc(Nc3cc[nH]n3)n3cccc23)c(OC(F)(F)F)c1` [Compound 155, 1-[4-(difluoromethoxy)-2-(trifluoromethoxy)phenyl]-N-(1H-pyrazol-3-yl)pyrrolo[1,2-d][1,2,4]triazin-4-amine], 10 to 100 nM.
Under `FC(F)(F)Cc1cc(C(F)(F)F)ccc1-c1nnc(Nc2cc[nH]n2)n2cccc12` [Compound 97, N-(1H-pyrazol-3-yl)-1-[2-(2,2,2-trifluoroethyl)-4-(trifluoromethyl)phenyl]pyrrolo[1,2-d][1,2,4]triazin-4-amine] stands 10 to 100 nM; under `O[C@H]1CCC[C@@H](Nc2nnc(-c3ccc(OC(F)F)cc3OC(F)(F)F)c3cccn23)C1` [Compound 153, (1S,3R)-3-({1-[4-(difluoromethoxy)-2-(trifluoromethoxy)phenyl]pyrrolo[1,2-d][1,2,4]triazin-4-yl}amino)cyclohexan-1-ol], 1 to 10 nM.
Consider `COc1ccc(-c2nnc(NC[C@@H]3CCCO3)n3cccc23)c(OC(F)(F)F)c1` [Compound 76, 1-[4-methoxy-2-(trifluoromethoxy)phenyl]-N-{[(2S)-oxolan-2-yl]methyl}pyrrolo[1,2-d][1,2,4]triazin-4-amine], for which the IC50 was 10 to 100 nM.
Under `C[C@]1(O)C[C@@H](Nc2nnc(-c3ccc(Br)cc3OC(F)F)c3cncn23)C1` [Compound 199, (1s,3s)-3-({1-[4-bromo-2-(difluoromethoxy)phenyl]imidazo[1,5-d][1,2,4]triazin-4-yl}amino)-1-methylcyclobutan-1-ol] stands 1 to 10 nM.
